Assay results taken from patent US4318916A, “Antibiotic PS-5 and derivatives having β-lactamase inhibitory activity and production thereof” (Sanraku-Ocean Co., Ltd., priority 1977, dated 1982).
≈ marks a conversion by molar mass, not a printed value. Where two headings read alike, the source gives them in different places.

Tests used:
Assay type in all cases: cell-based
Proteus vulgaris P-5 [1] = assay: Potentiation disc assay with cephaloridine (Table 10); details: for zone of inhibition at 625 µg/mL / zone of inhibition at 2500 µg/mL / zone of inhibition at 10000 µg/mL: P5, 18 h, read-out: Inhibition zone Without CER; for Potentiation of the antimicrobial activity of cephaloridine: disc assay, Table 10; for Inhibition zone With CER: 50 μg/ml cephaloridine in agar
Protocol: (A) Ten milliliters of molten nutrient agar containing 50 μg/ml of penicillin G or cephaloridine, 0.8% of Kyokuto Nutrient Broth Powder and 1.0% of Difco Bacto-Agar (pH 7.0) were seeded with the beta-lactam-resistant, beta-lactamase-producing microorganisms indicated in Tables 9 and 10, and poured in a 9-cm Petri dish to provide the bio-assay agar plate. On this assay plate, 8-mm pulp discs containing 25 μl each of antibiotic PS-5 solutions at the indicated concentrations were placed and incubated at 35° C. for 18 hours before reading the inhibition zones. The control assay plate was similarly prepared without penicillin G nor cephaloridine. As reference antibiotics, penicillin G, ampicillin, oxacillin and cefazolin were disc-assayed under the same conditions.

[2] = system: Staphylococcus aureus Bx-1633; assay: MIC by broth dilution (Table 8); details: BX1633, 20 h; Staphylococcus aureus Bx-1633; PS-5 as sodium salt; read-out: Minimum inhibitory concentration
Protocol: (§1) The MIC values of antibiotic PS-5 sodium salt were determined on various pathogenic microorganisms including resistant strains by the broth dilution method utilizing the BRAIN HEART INFUSION BROTH `Eiken` (EIKEN CHEMICAL CO., LTD.).
(§2) The antibiotic PS-5 sodium salt was dissolved in BRAIN HEART INFUSION BROTH `Eiken` (EIKEN CHEMICAL CO., LTD.) (pH 7.0) at concentration in the range of 5-50 μg/ml, from which appropriate dilution series were made in the same liquid medium. The microorganisms listed in Table 8 were cultivated for 18 hours in BRAIN HEART INFUSION BROTH `Eiken` at 28° C. and inoculated into the said dilution series of antibiotic PS-5 at a final inoculum size of 1×10^5 cells/ml. The cultures were allowed to stand at 35° C. for 20 hours, and then the growth of the microorganisms was read at each dilution of antibiotic PS-5. The minimum inhibitory concentration (MIC) represents the smallest concentration of the antibiotic PS-5 (sodium salt) where no propagation of the relevant microorganism was visually confirmed. As the controls, two known beta-lactam antibiotics, cephaloridine and cefoxitin were dissolved in brain heart infustion broth at pH 7.0 at concentrations ranging from 1 μg/ml to 100 μ g/ml and then diluted to make several dilution series in the above mentioned liquid medium. These samples were treated as described above for the MIC determinations.

[3] = system: Streptococcus pyogenes NY-5; assay: MIC by broth dilution (Table 8); details: NY5, 20 h; Streptococcus pyogenes NY-5; 10% horse blood supplemented into the medium; read-out: Minimum inhibitory concentration
Protocol: as §1, §2

[4] = system: Staphylococcus aureus EDA 209 P; assay: MIC by broth dilution (Table 8); details: EDA209P, 20 h; Staphylococcus aureus EDA 209 P; PS-5 as sodium salt; read-out: Minimum inhibitory concentration
Protocol: as §1, §2

[5] = system: Diplococcus pneumoniae Type III; assay: MIC by broth dilution (Table 8); details: Streptococcus pneumoniae, 20 h; Diplococcus pneumoniae Type III; 10% horse blood supplemented into the medium; read-out: Minimum inhibitory concentration
Protocol: as §1, §2

[6] = system: Bacillus subtilis ATCC 6633; assay: MIC by broth dilution (Table 8); details: ATCC6633, 20 h; Bacillus subtilis ATCC 6633; read-out: Minimum inhibitory concentration
Protocol: as §1, §2

[7] = system: Staphylococcus aureus Smith; assay: MIC by broth dilution (Table 8); details: 20 h; Staphylococcus aureus Smith; PS-5 as sodium salt; read-out: Minimum inhibitory concentration
Protocol: as §1, §2

[8] = system: Staphylococcus aureus Russell; assay: MIC by broth dilution (Table 8); details: 20 h; Staphylococcus aureus Russell; PS-5 as sodium salt; read-out: Minimum inhibitory concentration
Protocol: as §1
as §2, with “determinations. In addition to the MIC values of antibiotic PS-5, those of cephaloridine and cefoxitin are included for reference.” for “determinations.”

Proteus vulgaris P-5 [9] = assay: MIC by broth dilution (Table 8); details: P5, 20 h, betalactamase producer, read-out: Minimum inhibitory concentration
Protocol: as §1
as §2, with “determinations. In addition to the MIC values of antibiotic PS-5, those of cephaloridine and cefoxitin are included for reference.” for “determinations.”

Proteus mirabilis P-6 = assay: MIC by broth dilution (Table 8); details: P6, 20 h, resistant to kanamycin, gentamicin and tobramycin, read-out: Minimum inhibitory concentration
Protocol: as §1
as §2, with “determinations. In addition to the MIC values of antibiotic PS-5, those of cephaloridine and cefoxitin are included for reference.” for “determinations.”

Citrobacter freundii E-9 = assay: MIC by broth dilution (Table 8); details: E9, 20 h; Citrobacter freundii E-9; betalactamase producer; read-out: Minimum inhibitory concentration
Protocol: as §1
as §2, with “determinations. In addition to the MIC values of antibiotic PS-5, those of cephaloridine and cefoxitin are included for reference.” for “determinations.”

[10] = system: Enterobacter cloacae E-16; assay: MIC by broth dilution (Table 8); details: E16, 20 h, betalactamase producer, read-out: Minimum inhibitory concentration
Protocol: as §1
as §2, with “determinations. In addition to the MIC values of antibiotic PS-5, those of cephaloridine and cefoxitin are included for reference.” for “determinations.”

[11] = system: Klebsiella pneumoniae K-2; assay: MIC by broth dilution (Table 8); details: K2, 20 h, betalactamase producer, read-out: Minimum inhibitory concentration
Protocol: as §1
as §2, with “determinations. In addition to the MIC values of antibiotic PS-5, those of cephaloridine and cefoxitin are included for reference.” for “determinations.”

[12] = system: Alcaligenes faecalis B-326; assay: MIC by broth dilution (Table 8); details: B326, 20 h; Alcaligenes faecalis B-326; read-out: Minimum inhibitory concentration
Protocol: as §1
as §2, with “determinations. In addition to the MIC values of antibiotic PS-5, those of cephaloridine and cefoxitin are included for reference.” for “determinations.”

Escherichia coli K 12 = assay: MIC by broth dilution (Table 8); details: K12, 20 h; Escherichia coli K 12; read-out: Minimum inhibitory concentration
Protocol: as §1
as §2, with “determinations. In addition to the MIC values of antibiotic PS-5, those of cephaloridine and cefoxitin are included for reference.” for “determinations.”

Enterobacter sp. E-8 = assay: MIC by broth dilution (Table 8); details: SP.E8, 20 h; Enterobacter sp. E-8; betalactamase producer; read-out: Minimum inhibitory concentration
Protocol: as §1
as §2, with “determinations. In addition to the MIC values of antibiotic PS-5, those of cephaloridine and cefoxitin are included for reference.” for “determinations.”

Proteus sp. P-22 = assay: MIC by broth dilution (Table 8); details: 20 h; Proteus sp. P-22; read-out: Minimum inhibitory concentration
Protocol: as §1
as §2, with “determinations. In addition to the MIC values of antibiotic PS-5, those of cephaloridine and cefoxitin are included for reference.” for “determinations.”

Providencia sp. P-8 = assay: MIC by broth dilution (Table 8); details: SP.P8, 20 h, resistant to kanamycin, gentamicin and tobramycin, read-out: Minimum inhibitory concentration
Protocol: as §1
as §2, with “determinations. In addition to the MIC values of antibiotic PS-5, those of cephaloridine and cefoxitin are included for reference.” for “determinations.”

[13] = system: Enterobacter aerogenes E-19; assay: MIC by broth dilution (Table 8); details: Klebsiella aerogenes, E19, 20 h, betalactamase producer, read-out: Minimum inhibitory concentration
Protocol: as §1
as §2, with “determinations. In addition to the MIC values of antibiotic PS-5, those of cephaloridine and cefoxitin are included for reference.” for “determinations.”

Proteus rettgeri P-7 = assay: MIC by broth dilution (Table 8); details: Providencia rettgeri, P7, 20 h, resistant to gentamicin and tobramycin, read-out: Minimum inhibitory concentration
Protocol: as §1
as §2, with “determinations. In addition to the MIC values of antibiotic PS-5, those of cephaloridine and cefoxitin are included for reference.” for “determinations.”

Serratia marcescens S-18 = assay: MIC by broth dilution (Table 8); details: S18, 20 h, betalactamase producer, read-out: Minimum inhibitory concentration
Protocol: as §1
as §2, with “determinations. In addition to the MIC values of antibiotic PS-5, those of cephaloridine and cefoxitin are included for reference.” for “determinations.”

[14] = Proteus vulgaris P-5, reference antibiotic 625 μg/ml
[15] = Proteus vulgaris P-5, reference antibiotic 2,500 μg/ml
[16] = Proteus vulgaris P-5, reference antibiotic 10,000 μg/ml

SMILES: Cc1nnc(SCC2=C(C(=O)O)N3C(=O)[C@@H](NC(=O)Cn4cnnn4)[C@H]3SC2)s1 [Cefazolin, cefazolin]
- zone of inhibition at 625 µg/mL (Proteus vulgaris P-5 [1]; [14]): 0 mm
- zone of inhibition at 2500 µg/mL (Proteus vulgaris P-5 [1]; [15]): 0 mm
- zone of inhibition at 10000 µg/mL (Proteus vulgaris P-5 [1]; [16]): 14.6 mm
- Potentiation of the antimicrobial activity of cephaloridine (Proteus vulgaris P-5 [1]; Proteus vulgaris P-5): could not increase the antimicrobial activity of cephaloridine
- Inhibition zone With CER (Proteus vulgaris P-5 [1]; [14]): 0 mm
- Inhibition zone With CER (Proteus vulgaris P-5 [1]; [15]): 0 mm
- Inhibition zone With CER (Proteus vulgaris P-5 [1]; [16]): 12.0 mm

SMILES: CO[C@@]1(NC(=O)Cc2cccs2)C(=O)N2C(C(=O)O)=C(COC(N)=O)CS[C@@H]21 [Cefoxitin, cefoxitin]
- MIC [2]: 1.25 µg/mL
- MIC [3]: 0.63 µg/mL (≈ 1.47 µM)
- MIC [4]: 1.25 µg/mL
- MIC [5]: 1.25 µg/mL (≈ 2.92 µM)
- MIC [6]: 1.25 µg/mL (≈ 2.92 µM)
- MIC [7]: 2.5 µg/mL
- MIC [8]: 2.5 µg/mL
- MIC (Proteus vulgaris P-5 [9]): 12.5 µg/mL (≈ 29.2 µM)
- MIC (Proteus mirabilis P-6): 12.5 µg/mL (≈ 29.2 µM)
- MIC (Citrobacter freundii E-9): > 100 µg/mL
- MIC [10]: > 100 µg/mL
- MIC [11]: 6.25 µg/mL (≈ 14.6 µM)
- MIC [12]: 1.56 µg/mL (≈ 3.65 µM)
- MIC (Escherichia coli K 12): 2.5 µg/mL (≈ 5.85 µM)
- MIC (Enterobacter sp. E-8): 12.5 µg/mL (≈ 29.2 µM)
- MIC (Proteus sp. P-22): 12.5 µg/mL (≈ 29.2 µM)
- MIC (Providencia sp. P-8): 25 µg/mL (≈ 58.5 µM)
- MIC [13]: > 100 µg/mL
- MIC (Proteus rettgeri P-7): 6.25 µg/mL (≈ 14.6 µM)
- MIC (Serratia marcescens S-18): 50 µg/mL (≈ 117 µM)

SMILES: Cc1onc(-c2ccccc2)c1C(=O)N[C@@H]1C(=O)N2[C@@H]1SC(C)(C)[C@@H]2C(=O)O [Oxacillin, oxacillin]
- Potentiation of the antimicrobial activity of cephaloridine (Proteus vulgaris P-5 [1]; Proteus vulgaris P-5): could not increase the antimicrobial activity of cephaloridine
- Inhibition zone With CER (Proteus vulgaris P-5 [1]; [14]): 0 mm
- Inhibition zone With CER (Proteus vulgaris P-5 [1]; [15]): 0 mm
- Inhibition zone With CER (Proteus vulgaris P-5 [1]; [16]): 0 mm
- zone of inhibition at 625 µg/mL (Proteus vulgaris P-5 [1]; Proteus vulgaris): 0 mm
- zone of inhibition at 2500 µg/mL (Proteus vulgaris P-5 [1]; Proteus vulgaris): 0 mm
- zone of inhibition at 10000 µg/mL (Proteus vulgaris P-5 [1]; Proteus vulgaris): 0 mm

SMILES: CC1(C)S[C@@H]2[C@H](NC(=O)Cc3ccccc3)C(=O)N2[C@H]1C(=O)O [Penicillin G, penicillin G]
- Potentiation of the antimicrobial activity of cephaloridine (Proteus vulgaris P-5 [1]; Proteus vulgaris P-5): could not increase the antimicrobial activity of cephaloridine
- Inhibition zone With CER (Proteus vulgaris P-5 [1]; [14]): 0 mm
- Inhibition zone With CER (Proteus vulgaris P-5 [1]; [15]): 0 mm
- Inhibition zone With CER (Proteus vulgaris P-5 [1]; [16]): 14.5 mm
- zone of inhibition at 625 µg/mL (Proteus vulgaris P-5 [1]; Proteus vulgaris): 0 mm
- zone of inhibition at 2500 µg/mL (Proteus vulgaris P-5 [1]; Proteus vulgaris): 0 mm
- zone of inhibition at 10000 µg/mL (Proteus vulgaris P-5 [1]; Proteus vulgaris): 14.9 mm
